Measurements as given in PMC4351081, “Lincosamide Synthetase—A Unique Condensation System Combining Elements of Nonribosomal Peptide Synthetase and Mycothiol Metabolism” (PLoS ONE, 2015).

Molecular target: T1, LmbC (with holo-LmbN-CP) (Streptomyces lincolnensis, UniProt A9Y8R4)
T1 construct: gene SLINC_0236; LmbC: stand-alone NRPS adenylation domain, recombinant, produced as described previously; LmbN-CP: stand-alone N-terminal ~80-residue CP domain, C-terminal His-tag, E. coli BL21(DE3), phosphopantetheinylated by Slp (holo); with LmbN, N-terminal carrier protein domain (LmbN-CP)
T1 sequence (A9Y8R4 1-509): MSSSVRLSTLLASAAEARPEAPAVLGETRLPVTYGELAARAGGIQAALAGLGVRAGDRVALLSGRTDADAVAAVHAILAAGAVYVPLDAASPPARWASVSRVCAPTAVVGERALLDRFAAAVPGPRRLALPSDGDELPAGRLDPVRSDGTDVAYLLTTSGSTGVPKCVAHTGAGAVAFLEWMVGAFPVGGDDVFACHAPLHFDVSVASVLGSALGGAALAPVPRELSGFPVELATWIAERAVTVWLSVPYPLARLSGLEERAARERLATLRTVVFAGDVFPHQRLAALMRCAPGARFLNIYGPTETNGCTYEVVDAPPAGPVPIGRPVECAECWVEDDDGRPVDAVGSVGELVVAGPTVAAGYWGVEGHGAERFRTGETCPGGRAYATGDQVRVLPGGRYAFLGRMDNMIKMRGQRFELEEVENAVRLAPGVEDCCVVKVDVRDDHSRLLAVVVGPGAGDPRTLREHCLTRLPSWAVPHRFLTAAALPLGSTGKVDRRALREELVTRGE
T1 sequence (A9Y8S4 1-80 partner limits assumed): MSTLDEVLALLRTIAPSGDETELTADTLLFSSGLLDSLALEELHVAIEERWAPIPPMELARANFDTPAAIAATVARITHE
Experiment: LC-MS (FT-ICR) of aminoacylated carrier protein
Type: biochemical
Conditions: 3 mM PPL, 1.2 mM ATP, Mg2+, in vitro or in vivo phosphopantetheinylated LmbN-CP, 0.6 uM LmbC, pH 8.8, 28 C, 50 min; PPL transferred to holo-LmbN-CP (covalent)

In the case of `CCCC1CN[C@H](C(=O)O)C1` (stereo partly drawn) [4-propyl-L-proline], the “LC-MS (FT-ICR) of aminoacylated carrier protein” value is reported as “A-domain LmbC together with LmbN-holo-CP activate the PPL precursor of lincomycin”.
